Measured values from publication PMC7894401 (CPT: Pharmacometrics & Systems Pharmacology, 2020).
Several values for one entry are separate records, joined by “and”; a condition that tells them apart may be missing. Equal entries are not always repeated. Where two headings read alike, the source gives them in different places. One block for each compound: values may come before it.

Columns and labels:
PBPK model = assay: PBPK model; set-up: species or system human
[1] = Human ADME study with 14C-labelled drug: excretion and metabolite recovery; format: in vivo; conditions: human ADME study (ertugliflozin ref 12, dapagliflozin ref 23)
PBPK = assay: PBPK; set-up: species or system human; conditions: dapagliflozin with MFA
UGT1A9 [2] = target: T1, UGT1A9 (Homo sapiens, UniProt O60656); assay: UGT1A9 contribution to metabolism; format: in vitro ADME; conditions: for fm,UGT1A9 observed: calculated from clinical ADME and reaction phenotyping data; for microsomal CLint: human
T1 sequence (O60656 26-530): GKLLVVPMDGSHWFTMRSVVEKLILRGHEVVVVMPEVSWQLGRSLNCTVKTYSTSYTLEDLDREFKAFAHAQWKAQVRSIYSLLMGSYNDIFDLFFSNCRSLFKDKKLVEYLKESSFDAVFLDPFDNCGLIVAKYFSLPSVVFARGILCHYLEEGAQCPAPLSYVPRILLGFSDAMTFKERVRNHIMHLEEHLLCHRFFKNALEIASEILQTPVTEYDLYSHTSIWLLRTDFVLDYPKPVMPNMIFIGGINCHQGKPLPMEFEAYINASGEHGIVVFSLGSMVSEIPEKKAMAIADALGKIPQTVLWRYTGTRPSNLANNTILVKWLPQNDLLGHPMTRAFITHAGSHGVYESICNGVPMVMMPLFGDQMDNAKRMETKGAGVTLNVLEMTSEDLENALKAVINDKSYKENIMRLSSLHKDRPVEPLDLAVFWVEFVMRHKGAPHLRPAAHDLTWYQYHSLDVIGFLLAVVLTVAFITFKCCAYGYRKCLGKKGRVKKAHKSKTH

UGT2B4/2B7 [3] = assay: UGT2B4/2B7 contribution to metabolism; format: in vitro ADME, human; conditions: for fm,UGT2B7 observed: calculated from clinical ADME and reaction phenotyping data
[4] = tested on: UGT2B7 (UGT2B4/2B7 contribution assigned to UGT2B7); assay: UGT2B4/2B7 contribution to metabolism; format: in vitro ADME, human; conditions: human
CYP = assay: Overall oxidative; format: in vitro ADME; conditions: human, human liver microsomes (model input, not an incubation)
[5] = Simcyp input, cited from earlier work; for LogP: ref 42 (ertugliflozin), DrugBank 50 (dapagliflozin), DrugBank 49 (MFA)
[6] = blood/plasma ratio; ref 45 (ertugliflozin), 46 (dapagliflozin); cited from earlier work
Caco‐2 = conditions: ref 17 (ertugliflozin), 46 (dapagliflozin); cited from earlier work
[7] = cited from earlier work; for Vss: after i.v. administration; for CLiv: intravenous plasma clearance
[8] = human ADME study, ref 12 (ertugliflozin), 23 (dapagliflozin), cited from earlier work; for Renal excretion of unchanged drug: % of dose
[9] = cited from earlier work
UGT = conditions: ref 18 (ertugliflozin), 39 (dapagliflozin); cited from earlier work
CYP3A4 [10] = assay: CYP3A4 contribution to metabolism; format: in vitro ADME, human
CYP3A5 [11] = assay: CYP3A5 contribution to metabolism; format: in vitro ADME, human
CYP2C8 [12] = assay: CYP2C8 contribution to metabolism; format: in vitro ADME, human
[13] = fraction unbound in plasma; ref 45 (ertugliflozin), 46 (dapagliflozin); cited from earlier work
UGT1A9 [14] = target: T1, UGT1A9; conditions: in vitro UGT reaction phenotyping; cited from earlier work
UGT2B4/2B7 [15] = conditions: cited from earlier work
CYP3A4 [16] = conditions: in vitro CYP reaction phenotyping, cited from earlier work
CYP3A5 [17] = conditions: in vitro CYP reaction phenotyping, cited from earlier work
CYP2C8 [18] = conditions: in vitro CYP reaction phenotyping, cited from earlier work
UGT2B4 = target: T2, UGT2B4 (Homo sapiens, UniProt P06133); assay: Mefenamic acid inhibition of UGT2B4; format: biochemical; conditions: HLM, 1–100 µM
T2 sequence (P06133 24-528): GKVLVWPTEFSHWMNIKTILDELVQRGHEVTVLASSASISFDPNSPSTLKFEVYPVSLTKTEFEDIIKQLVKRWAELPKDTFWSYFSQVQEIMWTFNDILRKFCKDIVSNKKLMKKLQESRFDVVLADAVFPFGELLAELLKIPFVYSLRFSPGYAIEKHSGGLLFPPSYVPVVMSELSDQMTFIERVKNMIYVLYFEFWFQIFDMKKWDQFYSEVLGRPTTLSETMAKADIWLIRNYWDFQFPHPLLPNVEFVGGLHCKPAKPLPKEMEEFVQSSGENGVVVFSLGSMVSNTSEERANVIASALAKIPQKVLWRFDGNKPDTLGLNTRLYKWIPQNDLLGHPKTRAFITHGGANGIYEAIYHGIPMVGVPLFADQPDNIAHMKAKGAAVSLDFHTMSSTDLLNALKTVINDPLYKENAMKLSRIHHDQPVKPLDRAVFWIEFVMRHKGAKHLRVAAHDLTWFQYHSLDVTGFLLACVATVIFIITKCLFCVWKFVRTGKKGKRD

UGT1A9 [19] = target: T1, UGT1A9; assay: In vivo Ki of MFA fitted in the PBPK model to the clinical MFA–dapagliflozin DDI; conditions: UGT1A9 and UGT2B7, relative potencies kept
[20] = probenecid 500-mg twice-daily dose
[21] = dapagliflozin multiple oral dose 10 mg once daily
[22] = dapagliflozin multiple oral dose 50 mg once daily
[23] = dapagliflozin single oral dose 10 mg
[24] = ref 15 (ertugliflozin), 38 (dapagliflozin)
[25] = dapagliflozin single oral dose 10 mg, geometric mean
[26] = ertugliflozin multiple oral dose 5 mg once daily
[27] = ertugliflozin multiple oral dose 15 mg once daily
[28] = ertugliflozin single dose 0.1 mg administered intravenously
[29] = ertugliflozin single oral dose 0.5 mg
[30] = ertugliflozin single oral dose 2.5 mg
[31] = ertugliflozin single oral dose 10 mg
[32] = ertugliflozin single oral dose 15 mg
[33] = ertugliflozin single oral dose 30 mg
[34] = ertugliflozin single oral dose 100 mg
[35] = ertugliflozin single oral dose 300 mg
[36] = retrospectively calculated from CLiv, CLr, CYP fm and reaction phenotyping
[37] = ertugliflozin single oral dose 0.5 mg, geometric mean (%CV)
[38] = ertugliflozin single oral dose 2.5 mg, geometric mean (%CV)
[39] = ertugliflozin single oral dose 10 mg, geometric mean (%CV)
[40] = ertugliflozin single oral dose 30 mg, geometric mean (%CV)
[41] = ertugliflozin single oral dose 100 mg, geometric mean (%CV)
[42] = ertugliflozin single oral dose 300 mg, geometric mean (%CV)

Structure (SMILES): CCOc1ccc(Cc2cc([C@@H]3O[C@H](CO)[C@@H](O)[C@H](O)[C@H]3O)ccc2Cl)cc1 [Dapagliflozin, dapagliflozin]
- AUC predicted/ observed ratio (PBPK model; [21]): 1.06
- Cmax predicted/ observed ratio (PBPK model; [21]): 1.03
- AUC predicted/ observed ratio (PBPK model; [22]): 1.06
- Cmax predicted/ observed ratio (PBPK model; [22]): 0.84
- AUC predicted/ observed ratio (PBPK model; [23]): 0.92
- Cmax predicted/ observed ratio (PBPK model; [23]): 0.87
- Fe observed (fraction excreted unchanged in urine) [1]: 0.02
- AUCR predicted/observed ratio (PBPK): 1.0
- CmaxR predicted/observed ratio (PBPK): 1.0
- fm,UGT1A9 observed (UGT1A9 [2]): 0.79
- microsomal CLint (UGT1A9 [2]): 30 µL/min/mg
- Relative contribution of UGT1A9 to UGT metabolism (UGT1A9 [2]; in vitro UGT reaction phenotyping of this paper (HLM with UGT1A9 inhibitors)): 90%
- fm,UGT2B7 observed (UGT2B4/2B7 [3]): 0.09
- Remaining UGT metabolism assigned to UGT2B7 (UGT2B4/2B7 [3]; remainder after UGT1A9 contribution): 10%
- microsomal CLint [4]: 3 µL/min/mg
- microsomal CLint (CYP): 4 µL/min/mg
- LogP [5]: 2.52
- B/P ratio [6]: 0.88
- Caco‐2 permeability coefficient (Caco‐2): 15.9 10^–6 cm/s
- Vss [7, 24]: 1.19 L/kg
- Observed Cmax [7, 21]: 119 ng/mL
- Observed Cmax [7, 22]: 728 ng/mL
- Observed AUCinf [7, 25]: 628 ng·h/mL
- Observed Cmax [7, 25]: 143 ng/mL
- CLiv [7, 24]: 12.4 L/h
- Absolute bioavailability (F) ([7]; oral, ref 15 (ertugliflozin), 38 (dapagliflozin)): 78%
- Renal excretion of unchanged drug [8]: 2%
- Elimination by glucuronidation [8]: 88%
- Elimination by oxidation (converted to oxidative metabolites) [8]: 10%
- Increase in dapagliflozin exposure ([9]; co-administration with mefenamic acid): 51%
- Share of systemic UGT clearance occurring in the liver (UGT): 90%

Structure (SMILES): Cc1ccc([C@@H]2O[C@H](CO)[C@@H](O)[C@H](O)[C@H]2O)cc1Cc1ccc(-c2ccc(F)cc2)s1 [canagliflozin]
- Increase in canagliflozin exposure ([9]; co-administration with probenecid): 21%

Structure (SMILES): Nc1nc(CC(=O)Nc2ccc(CCNC[C@H](O)c3ccccc3)cc2)cs1 [mirabegron]
- UGT2B7-mediated metabolism incorporated in PBPK model (UGT2B4/2B7 [15]): ~ 30%

Now from value to compound, other results behind:

- AUC predicted/ observed ratio (PBPK model; [26]): 1.03
- Cmax predicted/ observed ratio (PBPK model; [26]): 1.22
- AUC predicted/ observed ratio (PBPK model; [27]): 0.97
- Cmax predicted/ observed ratio (PBPK model; [27]): 1.04
- AUC predicted/ observed ratio (PBPK model; [28]): 1.08
- Cmax predicted/ observed ratio (PBPK model; [28]): 0.98
- AUC predicted/ observed ratio (PBPK model; [29]): 0.82
- Cmax predicted/ observed ratio (PBPK model; [29]): 1.16
- AUC predicted/ observed ratio (PBPK model; [30]): 0.81
- Cmax predicted/ observed ratio (PBPK model; [30]): 0.98
- AUC predicted/ observed ratio (PBPK model; [31]): 0.82
- Cmax predicted/ observed ratio (PBPK model; [31]): 0.92
- AUC predicted/ observed ratio (PBPK model; [32]): 0.81
- Cmax predicted/ observed ratio (PBPK model; [32]): 0.97
- AUC predicted/ observed ratio (PBPK model; [33]): 0.80
- Cmax predicted/ observed ratio (PBPK model; [33]): 0.92
- AUC predicted/ observed ratio (PBPK model; [34]): 0.78
- Cmax predicted/ observed ratio (PBPK model; [34]): 1.04
- AUC predicted/ observed ratio (PBPK model; [35]): 0.83
- Cmax predicted/ observed ratio (PBPK model; [35]): 1.13
- Fe observed (fraction excreted unchanged in urine) [1]: 0.02
- fm,UGT1A9 observed (UGT1A9 [2]): 0.70
- microsomal CLint (UGT1A9 [2]): 35 µL/min/mg
- fm,UGT2B7 observed (UGT2B4/2B7 [3]): 0.16
- microsomal CLint [4]: 8 µL/min/mg
- fm,CYP3A4 observed (CYP3A4 [10]; fm,CYP × % contribution): 0.103
- CLint, CYP: CYP3A4 (CYP3A4 [10]; [36]): 0.041 µL/min/pmol
- fm,CYP3A5 observed (CYP3A5 [11]; fm,CYP × % contribution): 0.012
- CLint, CYP: CYP3A5 (CYP3A5 [11]; [36]): 0.006 µL/min/pmol
- fm,CYP2C8 observed (CYP2C8 [12]; fm,CYP × % contribution): 0.005
- CLint, CYP: CYP2C8 (CYP2C8 [12]; [36]): 0.011 µL/min/pmol
Structure (SMILES): CCOc1ccc(Cc2cc([C@]34OC[C@](CO)(O3)[C@@H](O)[C@H](O)[C@H]4O)ccc2Cl)cc1 [Ertugliflozin, ertugliflozin]
- LogP [5]: 2.5
- Fu,plasma [13]: 0.064
- B/P ratio [6]: 0.66
- Caco‐2 permeability coefficient (Caco‐2): 4.1 10^–6 cm/s
- Vss [7, 24]: 1.23 L/kg
- Observed AUCinf [7, 37]: 45.7 (10) ng·h/mL
- Observed Cmax [7, 37]: 7.23 (11) ng/mL
- Observed AUCinf [7, 38]: 231 (22) ng·h/mL
- Observed Cmax [7, 38]: 42.8 (21) ng/mL
- Observed AUCinf [7, 39]: 909 (15) ng·h/mL
- Observed Cmax [7, 39]: 182 (22) ng/mL
- Observed AUCinf [7, 40]: 2810 (18) ng·h/mL
- Observed Cmax [7, 40]: 545 (24) ng/mL
- Observed AUCinf [7, 41]: 9610 (16) ng·h/mL
- Observed Cmax [7, 41]: 1620 (16) ng/mL
- Observed AUCinf [7, 42]: 26400 (16) ng·h/mL
- Observed Cmax [7, 42]: 4330 (20) ng/mL
- Fa ([7]; fraction absorbed, absolute bioavailability study): 1.0
- CLiv [7, 24]: 11.2 L/h
- Renal excretion of unchanged drug [8]: ~ 2%
- Elimination by glucuronidation [8]: ~ 86%
- Elimination by oxidation (converted to oxidative metabolites) [8]: ~ 12%
- Relative contribution of UGT1A9 to glucuronidation (UGT1A9 [14]): 81%
- Relative contribution of UGT2B4/2B7 to glucuronidation (UGT2B4/2B7 [15]; in vitro UGT reaction phenotyping, assigned to UGT2B7 in model): 19%
- Contribution of CYP3A4 to oxidative metabolism (CYP3A4 [16]): 86%
- Contribution of CYP3A4 to oxidative metabolism (CYP3A4 [16]; listed as ertugliflozin): 86% and 85–100%
- Contribution of CYP3A5 to oxidative metabolism (CYP3A5 [17]): 10%
- Contribution of CYP3A5 to oxidative metabolism (CYP3A5 [17]; listed as ertugliflozin): 10% and 0–10%
- Contribution of CYP2C8 to oxidative metabolism (CYP2C8 [18]): 4%
- Contribution of CYP2C8 to oxidative metabolism (CYP2C8 [18]; listed as ertugliflozin): 4% and 0–4%
- Share of systemic UGT clearance occurring in the liver (UGT): 90%

- AUC predicted/ observed ratio (PBPK model; MFA single oral dose 500 mg): 0.89
- Cmax predicted/ observed ratio (PBPK model; MFA single oral dose 500 mg): 0.92
- Inhibition of UGT2B4 in vitro (UGT2B4): did not inhibit
- Fold adjustment of in vitro to in vivo UGT Ki values (increased potency) (UGT1A9 [19]): ~ 2.9 fold
Structure (SMILES): Cc1cccc(Nc2ccccc2C(=O)O)c1C [MFA, mefenamic acid]
- LogP [5]: 5.4
- pKa ([5]; ref DrugBank 49): 3.89
- Observed AUCinf ([7]; MFA single oral dose 500 mg): 34200 ng·h/mL
- Observed Cmax ([7]; MFA single oral dose 500 mg): 6900 ng/mL

- estimated unbound maximum steady-state concentration (Cmax,ss,u) [20]: 29 µM
Structure (SMILES): CCCN(CCC)S(=O)(=O)c1ccc(C(=O)O)cc1 [probenecid]
